Where a name gives a salt, the structure may show the parent alone. Read-outs that look alike come from different tables or passages of the source.

Series [1] is classed as in vivo, rabbit. To be noted: i.m. injection, plasma, from 15 min, extrapolated to infinity. As for the experimental part:
The selected rabbits were administrated intramuscular with stephaglabrine sulfate at doses 0.1 mg/kg as it was established before. Each animal received a single dose.
Quantitative analysis was acquired in SRM (selected reactions monitoring) mode on Agilent 6490 triple quadrupole mass spectrometer (Agilent, USA) operated in the positive mode and equipped with Jet Stream ESI ion source. Stepharine was detected in the scheduled selected reaction monitoring (SRM) with unit resolution at both first (Q1) and third (Q3) quadrupoles. The retention time point of stepharine was determined as 9.8 with isolation width of 1 minute for the scheduled SRM method application. The optimal conditions of the analysis were achieved as follows: capillary voltage was −4500 V, nozzle voltage was set at −1200 V, flow rate of drying gas (N2) was 16 L/min, flow rate of sheath gas (N2) was 8 L/min, temperature of drying gas was set at 340°C, temperature of sheath gas was set at 290°C, and nebulizer gas was operated at 20 psi. The transitions for protonated stepharine [M+H]^+ 298.4 → 161.2, 192.1, 238.2 were selected for SRM analysis. The isolation window for the fragment ions was set at 0.27 amu, the optimum fragmentor voltage was adjusted to 310 V and collision energy −19 eV. All the samples including calibration points were analyzed in three replications. 30 μL of the samples was injected and loaded on chromatographic column. Calibration was performed on standard samples solution prepared in 20% acetonitrile with concentration of stepharine from 10^−4 μg/mL to 100 μg/mL. Chromatographic separation was performed on Thermo Hypersil-Keystone ODS column (Thermo Scientific, USA) 100 × 2.1 mm, 5 μm particle size, at flow rate of 200 μL/min and with the following elution conditions: loading onto the column at maintained 20% of mobile phase B for 3 minutes, increasing the gradient to 50% of B at 5 minutes following increasing the gradient to 100% of mobile phase B at 15 minutes. The column was washed and maintained at 100% mobile phase B from 15 to 22 minutes and the composition was decreased to 20% of solvent B at 23 minute. The column was reequilibrated at starting conditions of solvent A-solvent B system ([…], v/v) for 10 minutes at flow 200 μL/min.
0.5 mL of blood samples from each animal was collected from ear vein in the tubes with EDTA before administration and at 15, 30, 60, 90, 120, 180, 480, 720, and 1440 minutes after drug ingestion. Blood samples were immediately put on ice and centrifuged at 5000 g for 10 minutes at 4°C within one hour after blood collection. The obtained plasma was placed in sterile tube and kept at −20°C until analysis.
Plasma proteins were precipitated with acetonitrile. For this purpose, two volumes of acetonitrile were added to 100 μL of rabbit plasma into 1.5 mL plastic tube and 30% ammonia hydroxide was added to adjust the pH to 10. After vortex-mixing for 15 minutes at ambient temperature one volume of chloroform was added three times consequently for 2 hours and incubated at 30°C under regular stirring at 900 rpm at each occasion. The first fraction of upper organic layer was collected after 2 hours of incubation, the second and the third fractions of chloroform extract were collected after additional 30 and 60 minutes of incubation, respectively. The collected fractions were combined and transferred to a new tube and dried under vacuum at 30°C. The resulting pellet was resuspended in 100 μL of 20% water-acetonitrile solution and centrifuged at 14000 rpm for 15 minutes immediately before use. The obtained solution was used for LC-MS analysis. […]

The conditions of series [2]: dichloromethane and hexane as extracting solvents.
In series [3] the test system is denervated extremities at traumatic injuries of sciatic nerve. Also noted: method as in ref 4, 5 = [4]; 4 Kuznecov J Arzamascev E Malinovskaja C Pharmacological properties and toxicologic characteristics of stefaglabrin sulphate Medicines Plant Origin in Modern Therapy 1989 2 p. 71 || [5]; 5 Schelchkova II Il'inskaya TN Kuzovkov AD The alkaloids of Stephania glabra Chemistry of Natural Compounds 1965 1 4 210 212. To be noted: rabbits, intramuscular injection 0.1 mg/kg; cited from earlier work.

Series [4] relates to cholinesterase. The arrangement: method as in ref 11 = [11]; 11 Berezhinskaya VV Nikittna SS Trutneva EA Medicinal plants pharmacology and chemotherapy Trudy Vsesoyuznogo Nauchno-Issledovatel'skogo Instituta Lekarstvenny Rastenii 1971 14 66 69. To be noted: in vitro; cited from earlier work.
For series [5], the system named is pseudocholinesterase. The arrangement: method as in ref 11 = [11]; 11 Berezhinskaya VV Nikittna SS Trutneva EA Medicinal plants pharmacology and chemotherapy Trudy Vsesoyuznogo Nauchno-Issledovatel'skogo Instituta Lekarstvenny Rastenii 1971 14 66 69. Conditions: in vitro; cited from earlier work.
The test system of series [6] is synaptic transmission. Also noted: method as in PMID 1652103. Conditions: at low concentration; cited from earlier work.
The conditions of series [7]: without side effects such as α- or β-adrenergic blockade, sedative or depressant effect; cited from earlier work.
The conditions of series [8]: water and aqueous alcohol; cited from earlier work.

On to `COc1cc2c3c(c1OC)C1(C=CC(=O)C=C1)C[C@H]3NCC2` [stephaglabrine sulfate, Stephaglabrine sulfate], for which the AUC15 in series [1] (rabbit ST01, dosage 0.50 mg (0.1 mg/kg)) is recorded as 1661 ng∗min/mL; in series [1] (rabbit ST02, dosage 0.50 mg (0.1 mg/kg)), 3187 ng∗min/mL; in series [1] (rabbit ST04, dosage 0.45 mg (0.1 mg/kg)), 2516 ng∗min/mL; in series [1] (rabbit ST05, dosage 0.50 mg (0.1 mg/kg)) it was 2217 ng∗min/mL; in series [1] (rabbit ST06, dosage 0.50 mg (0.1 mg/kg)), 2769 ng∗min/mL. In series [2], the “solubility in highly nonpolar solvents” value is “low solubility”. The “intensity of trophic disturbances of denervated extremities” value in series [3] was “significantly decreases intensity of trophic disturbances”. In addition, the inhibition of cholinesterase entry in series [4] is given as “inhibits”. Besides, in series [5], the inhibition of pseudocholinesterase entry is listed as “inhibits”. For the same compound, the “frequency of miniature endplate potential” value in series [6] is “diminishes frequency of miniature endplate potential”. Also, the antihypertensive activity result in series [7] is “possesses antihypertensive activity”. Besides, in series [8], the solubility entry is “soluble in water and aqueous alcohol”.
